Entries after “also recorded” stand apart in the source; their conditions may differ.
Tests used:
[1] = test system: iceberg and Romaine lettuce midribs; assay: Objective pink rib severity: a* value by RGB image analysis of cut sites; format: in vivo
Text: (§1) In all tests, experimental setup began immediately upon arrival to the laboratory. 90 outer leaves were randomly selected from 18 to 22 lettuce heads that met commercial and damage-free quality standards. A midrib segment (12.5 cm) was excised from the center of each leaf and excess leaf blade tissue was trimmed parallel to the midrib. This procedure was adapted from the wounding procedure of Cantwell (2016). Each midrib was then partially sliced transversally at 1.3-cm increments along the midrib. Midribs (n=15) were immediately immersed for 30 s in one of five treatment solutions: deionized water (wounded control), L-cysteine (4.1 mM), naringenin (1.8 mM) with 20% dimethyl sulfoxide (DMSO), serotonin (2.8 or 5.7 mM) or melatonin (4.3 mM) with 0.50% DMSO. Immediately following immersion, the midribs for each treatment were patted dry using paper towels and placed (n=5) in a breathable, high-density polyethylene bag (n=3) (Narrow Profile Produce Bags [14×18 inches] Model No. S-19156, Uline®, Pleasant Prairie, WI). Unwounded control midribs were stored in the same manner. To allow for direct comparison, each cut site on each midrib was assigned an initial discoloration value on day 1 based on the coloration of the rib. Samples were stored at 5° C. with 95-98% relative humidity (RH) for 5 d, simulating commercial storage.
Objective evaluations were also made after 1, 3, and 5 d by capturing an image of each wounded midrib using a digital camera (Nikon D5200, Nikon, Melville, NY, USA) under full spectrum LED lighting (Sunco Lighting, Valencia, CA, USA) with 4100 Lumens at a distance of 1.12 m. Only unwounded and treated (L-cysteine or melatonin) midribs from Test 1 were measured using this method. The camera settings were on manual mode ISO400, shutter speed 1/125, aperture 5.6, and no zoom or flash; distance from the tissue was approximately 18 inches. The white balance of the camera was set with a gray card prior to each imaging session. GNU Image Manipulation Program (GIMP, version 2.10.14; The GIMP Project c/o GNOME Foundation, Orinda, CA, USA) was used to isolate pixels from an area 1 mm in width along the length of each cut site. Because a cut site is required as a guide for pixel extraction, no data was collected from images of the unwounded midribs.
Isolated pixels were converted from the RGB to the L*a*b* color space (Commission Internationale de l'Elcairage) with the “convertColor” function in R version 4.0.0 (R Core Team, 2020), using Illuminant D65 as the white reference. The mean a* value was calculated for each group of isolated cut site pixels at each time point. In the L*a*b* color space, […] the degree of redness (+) or greenness (−); thus, the mean a* at each cut site quantified the severity of pink rib discoloration. R was also applied to subset the data, to ensure that the cut sites chosen for further analysis had similar initial color. The a* values ranged from −3 to 0 for iceberg lettuce and −6 to −3 for Romaine.
(§2) The imaging data (a* value), enzyme activity (PAL and PPO), and metabolite (chlorogenic acid) results were expressed as mean±standard error and analyzed by lettuce type (iceberg or Romaine). For imaging data, an unpaired t-test was used to identify differences within a treatment throughout storage and among treatment groups at each time point. Treatment groups were defined as wounded, unwounded, L-cysteine, and melatonin. […] Analyses of variance were performed for PAL, PPO, and metabolite analyses using SAS software (version 9.4; SAS Institute, Cary, NC) to identify differences among treatment groups. Differences among treatments groups were separated by Tukey's Honest Significant Difference (HSD) test with a confidence level of 95%. The correlation between visual rating and a* value was evaluated for significance via an F-test, from which the P-value of the correlation was calculated.

[2] = test system: phenylalanine ammonia-lyase (PAL); assay: PAL activity in crude protein extracts of treated wounded midribs; format: biochemical, lettuce (iceberg, Romaine); conditions: 5 d at 5° C.; for PAL activity: L-cysteine 4.1 mM or melatonin 4.3 mM; for effect on PAL activity: iceberg and Romaine, vs wounded control
Text: as §1
PAL activity was measured using a crude protein extraction following a method reported by Kim et al. (2020) with some modifications. Fresh lettuce samples (300 mg) were ground with liquid nitrogen in a pre-chilled mortar and pestle. A 0.1 mM Tris-HCl buffer (pH 8.3) was added at a 1:1 (w:v). The solution was incubated at 4° C. for 1 h and then centrifuged at 4° C., 9660×g for 15 min. Supernatants were collected in chilled tubes. Total protein content was measured using Quick Start Bradford protein assay kit (Bio-Rad, Hercules, CA, USA) and Bovine Serum Albumin (BSA) as a standard (10 mg mL^−1 in deionized water). Protein concentration was calculated based on the absorbance at 595 nm measured with a NanoDrop (One Microvolume UV-Vis Spectrophotometer, Thermo Scientific, Wilmington, DE, USA) and the standard curve. For the PAL activity test, 150 μL aliquots of the protein extract were incubated in a reaction buffer containing 0.1 mM Tris-HCl buffer (pH 8.3), 5 mM dithiothreitol (DTT), and 5 mM phenylalanine. Reaction mixtures were incubated at 37° C. for 90 min and stopped with the addition of 40 μL of 30% acetic acid. Reaction products were extracted with 600 μL of ethyl acetate and then centrifuged at 22° C., 9660×g for 5 min. The supernatant was dried in a speed vac and re-dissolved in 100 μL of 50% methanol. The final extract (10 μL) was analyzed by HPLC using the method previously described in Section 2.4.
as §2

Row | SMILES | change of a* value ([1]; L-cysteine 4.1 mM, Romaine, after 3 d (P=0.0242)) | change of a* value ([1]; L-cysteine 4.1 mM, iceberg, after 3 d (P=0.0242)) | change of a* value ([1]; L-cysteine 4.1 mM, iceberg, after 5 d (P=0.00059)) | PAL activity ([2]; Romaine, wounded control 9.56) [pkat mg^−1] | effect on PAL activity [2] | PAL activity ([2]; iceberg, wounded control 6.73) [pkat mg^−1] | change of a* value ([1]; melatonin 4.3 mM, Romaine, between days 3 and 5) | a* value versus control ([1]; melatonin 4.3 mM, Romaine, day 5, control mean 1.49) | mean a* value ([1]; melatonin 4.3 mM, Romaine, day 5 at 5° C.) | change of a* value ([1]; melatonin 4.3 mM, iceberg, throughout 5 d storage) | a* values versus control treatments, overall ([1]; melatonin, iceberg and Romaine)
1 | N[C@@H](CS)C(=O)O [L-cysteine] | increase | increased | increased | 11.07 | no significant reduction in PAL activity | 5.43 |  |  |  |  | 
2 | COc1ccc2[nH]cc(CCNC(C)=O)c2c1 [melatonin] |  |  |  | 6.06 | no significant reduction in PAL activity; also recorded: neither enzyme activity (PAL or PPO) nor chlorogenic acid concentration were impacted; also recorded: did not significantly affect PAL or PPO enzyme activities | 7.44 | increasing | no longer significantly different | −0.67 | did not increase throughout storage | significantly lower a* values
